Values after ≈ are worked out from the molar mass of the structure shown.
Assays:
[1] = test system: P388 murine leukemia cells; assay: P388 in vitro antitumor screen (inhibition of P388 cell proliferation, MTT assay); type: cell-based; details: Mus musculus; for IC50: P388 cells, 48-hour incubation, MTT assay
Description: P388 murine leukemia cells, obtained from the National Cancer Institute, Bethesda, MD, were maintained at 37° C. in 5% CO2 in humidified air. Growth medium was Roswell Park Memorial Institute medium 1640 supplemented with 10% heat-inactivated horse serum. Stock cultures of P388 cells were grown in antibiotic-free growth medium and were subcultured (10^5 cells/ml, 25 ml cultures in T-25 plastic tissue culture flasks) every 2-3 days. […] An appropriate volume of the dilution was transferred to duplicate wells in a 96-well plate, evaporated to dryness, and 200 μl of growth medium-containing cells at a density of 1×10^5 cells/ml were added per well (final concentration of extract was 20 μg/ml). […] For daily quality control, each technician determines the IC50 of fluorouracil for inhibition of P388 cell proliferation. After 48-hour incubations, cell number was determined with the MTT assay (below), calculated as a percent of untreated cell growth, converted to percent inhibition, and reported to the chemist requesting the screen.
The initial determination of an IC50 value for inhibition of P388 cell proliferation with a crude, semipure, or pure sample was made by diluting the sample in methanol to the appropriate concentration, and then serial 1:1 dilutions were made in duplicate in a 96-well plate, such that the final concentrations in the assay were 20, 10, 5, 1.25, and 0.625 μg/ml. After solvent was evaporated to dryness, cells were added to each well as described above. After 48-hour incubations, cell numbers were determined with the MTT assay, converted to percent control, and plotted versus the log of the sample concentration. Curves were fitted by least-squares linear regression of logit-transformed data and the concentration of sample that inhibited cell proliferation by 50% was reported to the chemist requesting the screen. If the IC50 value was less than 0.625 μg/ml, additional serial dilutions were made and tested for activity.
MTT or 3-(4,5-dimethylthiazol-2-yl)-2,5-diphenyl-tetrazolium bromide is used in an established method (J. Immunol. Methods [1983] 65:55-63) to enumerate cells rather than "Coulter counting." For screening purposes, the correlation between percent inhibition determined for actual crude extracts with the Coulter counter and MTT method was very good (r=0.953, n=102 separate determinations of activity at 20 μg/ml), and no extract that was positive as determined by actual cell counts was lost using the MTT assay.

Candida albicans = assay: Antimicrobial MIC protocol, Candida albicans; type: cell-based, Candida albicans (ATCC strain 44506); details: lowest concentration which completely inhibited growth, 1000 cells/mL, 37° C. overnight
Description: (§1) Unless otherwise noted, all media were autoclaved at 121° C. for 15 minutes.
Candida albicans: C. albicans (ATCC strain 44506 was grown on Sabouraud dextrose agar to produce single colonies, one of which was used to inoculate Sabouraud dextrose broth. The broth was incubated at 37° C. with shaking at 200 rpm for 18 hours. The resultant culture was brought to 10% (v/v) glycerol, frozen at -80° C., and used as the inoculum for the anti-Candida assay.
Two-fold dilutions of the test compound were prepared in 50 μL volumes of a suitable solvent using 96-well microtiter plates. In a separate 96-well plate, 35 μL volumes of either Sabouraud dextrose broth or RPMI-1640 were placed in each well. The test compound (5 μL) was then transferred to the broth. An inoculum of C. albicans in the appropriate medium was added to give a cell density of 1000 cells/mL and a total volume of 50 μL. Plates were incubated at 37° C. overnight.

Bacillus subtilis = assay: Antimicrobial disc diffusion assay, Bacillus subtilis; type: cell-based, Bacillus subtilis (ATCC strain 6633); details: 20 μg/disc, 6.35 mm paper discs, overnight at 37° C., read-out: Antimicrobial Bacillus subtilis zone (diameter of the zone of growth inhibition)
Description: as §1
Standard spore stocks (ATCC strain 6633 were purchased from Difco (#0453-36-0).
B. subtilis was inoculated into Penassay medium (1 mL of stock per 200 mL agar), melted, and cooled to 45° C. Plates were poured as described above.
Paper discs (6.35 mm) were impregnated with the test substance and allowed to dry. They were then placed onto the surface of a test plate prepared as detailed above. Plates were incubated overnight at 37° C., after which time the zones of growh inhibition could be read. These were expressed as the diameter of the zone in millimeters. Standard drugs were used in all cases.

Row | IC50 [1] [µg/mL] | MIC (Candida albicans) [µg/mL] | SMILES | zone of inhibition at 20 µg/disc (Bacillus subtilis) [mm] | inhibition at 0.2 µg/mL ([1]; P388, 48 h, read-out: inhibition of cell replication (positive control)) [%]
1 | 7.6 (≈ 16.7 µM) | 3.1 (≈ 6.8 µM) | Brc1ccc2c(-c3c[nH]c(-c4c[nH]c5cc(Br)ccc45)n3)c[nH]c2c1 [Nortopsentin A] | 8 | 
2 | 0.34 | > 50 | Cn1c(-c2cn(C)c3ccccc23)c[n+](C)c1-c1cn(C)c2cc(Br)ccc12 [Tetramethylnortopsentin B] | 12 | 
3 | 1.7 (≈ 4.51 µM) | 12.5 (≈ 33.1 µM) | Brc1ccc2c(-c3c[nH]c(-c4c[nH]c5ccccc45)n3)c[nH]c2c1 [Nortopsentin C] | 9 | 
4 | 7.8 (≈ 20.7 µM) | 6.2 (≈ 16.4 µM) | Brc1ccc2c(-c3nc(-c4c[nH]c5ccccc45)c[nH]3)c[nH]c2c1 [Nortopsentin B] | 9 | 
5 |  |  | O=c1[nH]cc(F)c(=O)[nH]1 [fluorouracil, reference compound] |  | ~95
